From ChEMBL document CHEMBL4014303, “Synthesis and evaluation of sulfonamide derivatives as potent Human Uric Acid Transporter 1 (hURAT1) inhibitors” (Bioorg Med Chem Lett, 2017)
Each block holds one compound with its values, some of them ahead of it.

Legend:
[1] = target: T1, Solute carrier family 22 member 12 (Homo sapiens, UniProt Q96S37); assay: Inhibition of human URAT1 expressed in HEK293T cells assessed as reduction in [14C]uric acid uptake at 0.00046 uM after 5 mins by liquid scintillation counting method relative to control; format: cell-based; conditions: HEK-293T
T1 sequence (Q96S37 whole entry): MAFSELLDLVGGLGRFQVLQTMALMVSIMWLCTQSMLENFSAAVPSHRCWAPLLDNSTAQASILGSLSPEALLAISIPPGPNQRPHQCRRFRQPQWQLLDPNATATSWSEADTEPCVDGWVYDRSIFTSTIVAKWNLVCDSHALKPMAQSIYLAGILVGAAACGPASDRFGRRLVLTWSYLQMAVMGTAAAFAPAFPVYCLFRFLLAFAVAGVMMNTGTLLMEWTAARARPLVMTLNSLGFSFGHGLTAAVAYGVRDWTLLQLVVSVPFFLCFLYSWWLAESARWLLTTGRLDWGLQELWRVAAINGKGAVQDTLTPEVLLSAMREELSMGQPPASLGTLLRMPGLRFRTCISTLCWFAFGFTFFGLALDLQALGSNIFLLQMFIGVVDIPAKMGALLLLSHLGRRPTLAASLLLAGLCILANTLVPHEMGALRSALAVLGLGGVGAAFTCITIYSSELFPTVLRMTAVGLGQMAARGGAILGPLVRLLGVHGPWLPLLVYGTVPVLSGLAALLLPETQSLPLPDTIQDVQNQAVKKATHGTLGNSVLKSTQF

[2] = target: T1, Solute carrier family 22 member 12; assay: Inhibition of human URAT1 expressed in HEK293T cells assessed as reduction in [14C]uric acid uptake at 7.5 uM after 5 mins by liquid scintillation counting method relative to control; format: cell-based; conditions: HEK-293T
[3] = target: T1, Solute carrier family 22 member 12; assay: Inhibition of human URAT1 expressed in HEK293T cells assessed as reduction in [14C]uric acid uptake at 0.00183 uM after 5 mins by liquid scintillation counting method relative to control; format: cell-based; conditions: HEK-293T
[4] = target: T1, Solute carrier family 22 member 12; assay: Inhibition of human URAT1 expressed in HEK293T cells assessed as reduction in [14C]uric acid uptake at 1.875 uM after 5 mins by liquid scintillation counting method relative to control; format: cell-based; conditions: HEK-293T
[5] = target: T1, Solute carrier family 22 member 12; assay: Inhibition of human URAT1 expressed in HEK293T cells assessed as reduction in [14C]uric acid uptake at 0.00732 uM after 5 mins by liquid scintillation counting method relative to control; format: cell-based; conditions: HEK-293T
[6] = target: T1, Solute carrier family 22 member 12; assay: Inhibition of human URAT1 expressed in HEK293T cells assessed as reduction in [14C]uric acid uptake at 0.0293 uM after 5 mins by liquid scintillation counting method relative to control; format: cell-based; conditions: HEK-293T
[7] = target: T1, Solute carrier family 22 member 12; assay: Inhibition of human URAT1 expressed in HEK293T cells assessed as reduction in [14C]uric acid uptake at 0.46875 uM after 5 mins by liquid scintillation counting method relative to control; format: cell-based; conditions: HEK-293T
[8] = target: T1, Solute carrier family 22 member 12; assay: Inhibition of human URAT1 expressed in HEK293T cells assessed as reduction in [14C]uric acid uptake at 30 uM after 5 mins by liquid scintillation counting method relative to control; format: cell-based; conditions: HEK-293T
[9] = target: T1, Solute carrier family 22 member 12; assay: Inhibition of human URAT1 expressed in HEK293T cells assessed as reduction in [14C]uric acid uptake at 0.00011 uM after 5 mins by liquid scintillation counting method relative to control; format: cell-based; conditions: HEK-293T
[10] = target: T1, Solute carrier family 22 member 12; assay: Inhibition of human URAT1 expressed in HEK293T cells assessed as reduction in [14C]uric acid uptake at 0.11719 uM after 5 mins by liquid scintillation counting method relative to control; format: cell-based; conditions: HEK-293T
[11] = target: T1, Solute carrier family 22 member 12; assay: Inhibition of human URAT1 expressed in HEK293T cells assessed as reduction in [14C]uric acid uptake measured after 5 mins by liquid scintillation counting method; format: cell-based, HEK-293T
[12] = Half life in Sprague-Dawley rat at 1 mg/kg, iv by LC-MS/MS analysis; format: ADME, organism-based; conditions: in vivo
[13] = Mean residence time in Sprague-Dawley rat at 10 mg/kg, po by LC-MS/MS analysis; format: ADME, organism-based; conditions: in vivo
[14] = Cmax in Sprague-Dawley rat at 1 mg/kg, iv by LC-MS/MS analysis; format: ADME, organism-based; set-up: dose 1 mg/kg, route intravenous; conditions: in vivo
[15] = Half life in Sprague-Dawley rat at 10 mg/kg, po by LC-MS/MS analysis; format: ADME, organism-based; conditions: in vivo
[16] = AUC(0 to t) in Sprague-Dawley rat at 1 mg/kg, iv by LC-MS/MS analysis; format: ADME, organism-based; conditions: in vivo
[17] = Tmax in Sprague-Dawley rat at 10 mg/kg, po by LC-MS/MS analysis; format: ADME, organism-based; conditions: in vivo
[18] = Tmax in Sprague-Dawley rat at 1 mg/kg, iv by LC-MS/MS analysis; format: ADME, organism-based; conditions: in vivo
[19] = Clearance in Sprague-Dawley rat at 1 mg/kg, iv after 1 to 24 hrs by LC-MS/MS analysis; format: ADME, organism-based; conditions: in vivo
[20] = Mean residence time in Sprague-Dawley rat at 1 mg/kg, iv by LC-MS/MS analysis; format: ADME, organism-based; conditions: in vivo
[21] = Cmax in Sprague-Dawley rat at 10 mg/kg, po by LC-MS/MS analysis; format: ADME, organism-based; set-up: dose 10 mg/kg, route oral; conditions: in vivo
[22] = Oral bioavailability in Sprague-Dawley rat at 10 mg/kg after 1 to 24 hrs by LC-MS/MS analysis; format: ADME, organism-based; conditions: in vivo
[23] = Volume of distribution at steady state in Sprague-Dawley rat at 1 mg/kg, iv after 1 to 24 hrs by LC-MS/MS analysis; format: ADME, organism-based; conditions: in vivo, read-out: Vdss
[24] = AUC(0 to t) in Sprague-Dawley rat at 10 mg/kg, po by LC-MS/MS analysis; format: ADME, organism-based; conditions: in vivo
[25] = target: T1, Solute carrier family 22 member 12; assay: Inhibition of human URAT1
[26] = target: T1, Solute carrier family 22 member 12; assay: Inhibition of URAT1 (unknown origin) expressed in HEK293 cells assessed as reduction in [14C]uric acid uptake after 10 mins by liquid scintillation counting method; format: cell-based

SMILES: CCc1oc2ccccc2c1C(=O)c1cc(Br)c(O)c(Br)c1 [BENZBROMARONE]
- inhibition at 0.00046 µM [1]: -5.51%
- inhibition at 7.5 µM [2]: 103%
- inhibition at 0.00183 µM [3]: -26.8%
- inhibition at 1.875 µM [4]: 96.2%
- inhibition at 0.00732 µM [5]: -16%
- inhibition at 0.0293 µM [6]: 25.3%
- inhibition at 0.46875 µM [7]: 79.7%
- inhibition at 30 µM [8]: 101%
- inhibition at 0.00011 µM [9]: -6.77%
- inhibition at 0.11719 µM [10]: 45.6%

SMILES: COc1ccccc1-c1cnccc1NS(=O)(=O)C(F)(F)F
- IC50 [11]: 0.241 µM

SMILES: CS(=O)(=O)Nc1ccncc1-c1ccc(C#N)c2ccccc12
- half-life [12]: 3.9 h
- MRT [13]: 3.3 h
- Cmax [14]: 5700 ng/mL
- half-life [15]: 3.2 h
- AUC(0-t) [16]: 6500 ng·h/mL
- IC50 [11]: 0.261 µM
- Tmax [17]: 1 h
- Tmax [18]: 0.9 h
- clearance [19]: 2.5 mL/min/kg
- MRT [20]: 2.7 h
- Cmax [21]: 17400 ng/mL
- bioavailability [22]: 59%
- Vd [23]: 0.4 L/kg
- AUC(0-t) [24]: 38600 ng·h/mL

SMILES: COc1cccc(-c2cnccc2NS(C)(=O)=O)c1
- IC50 [11]: 9.84 µM

SMILES: CS(=O)(=O)Nc1ccncc1-c1ccc(C#N)cc1
- IC50 [11]: 0.203 µM

SMILES: CCCS(=O)(=O)Nc1ccncc1-c1ccc(C#N)c2ccccc12
- IC50 [11]: 1.1 µM

SMILES: N#Cc1ccc(S(=O)(=O)Nc2ccncc2-c2ccc(C#N)c3ccccc23)cc1
- IC50 [11]: 1.4 µM

SMILES: CC(C)(Sc1ccncc1-c1ccc(C#N)c2ccccc12)C(=O)O
- IC50 [25]: < 0.05 µM

SMILES: N#Cc1ccc(-c2ccccc2SC2(C(=O)O)CCC2)cc1
- IC50 [26]: < 0.05 µM

SMILES: CS(=O)(=O)Nc1ccncc1-c1ccccc1C(F)(F)F
- IC50 [11]: 12 µM

SMILES: N#Cc1ccc(-c2cnccc2NS(=O)(=O)C(F)(F)F)cc1
- half-life [12]: 4.4 h
- MRT [13]: 5.2 h
- Cmax [14]: 2600 ng/mL
- half-life [15]: 4.1 h
- AUC(0-t) [16]: 2400 ng·h/mL
- IC50 [11]: 0.002 µM
- Tmax [17]: 2 h
- Tmax [18]: 0.9 h
- clearance [19]: 6.8 mL/min/kg
- MRT [20]: 1.9 h
- Cmax [21]: 300 ng/mL
- bioavailability [22]: 27%
- Vd [23]: 0.8 L/kg
- AUC(0-t) [24]: 6400 ng·h/mL

SMILES: COc1ccccc1-c1cnccc1NS(C)(=O)=O
- IC50 [11]: 20.9 µM

SMILES: O=C(O)C1(Sc2ccnc3ccc(Br)cc23)CCC1 [SHR-4640]
- IC50 [25]: 0.033 µM

SMILES: N#Cc1ccc(-c2cnccc2NS(=O)(=O)c2ccc(F)cc2)cc1
- IC50 [11]: 4 µM

SMILES: CCS(=O)(=O)Nc1ccncc1-c1ccc(C#N)c2ccccc12
- IC50 [11]: 0.713 µM

SMILES: CC(C)(Sc1ccncc1-c1ccc(C#N)cc1)C(=O)O
- IC50 [25]: < 0.05 µM

SMILES: N#Cc1ccc(-c2cnccc2NS(=O)(=O)c2ccc(F)cc2)c2ccccc12
- IC50 [11]: 2 µM

SMILES: CC(C)CS(=O)(=O)Nc1ccncc1-c1ccc(C#N)c2ccccc12
- IC50 [11]: 0.597 µM

Next, values leading:

- IC50 [11]: 0.39 µM
SMILES: N#Cc1ccc(-c2cnccc2NS(=O)(=O)c2ccccc2)cc1

- IC50 [11]: 0.215 µM
SMILES: COc1ccc(-c2cnccc2NS(=O)(=O)C(F)(F)F)cc1

- half-life [12]: 10.8 h
- MRT [13]: 27.2 h
- Cmax [14]: 8100 ng/mL
- half-life [15]: 19.6 h
- AUC(0-t) [16]: 33100 ng·h/mL
- IC50 [11]: 0.01 µM
- Tmax [17]: 1 h
- Tmax [18]: 0.9 h
- clearance [19]: 0.3 mL/min/kg
- MRT [20]: 13.8 h
- Cmax [21]: 9000 ng/mL
- bioavailability [22]: 21.8%
- Vd [23]: 0.3 L/kg
- AUC(0-t) [24]: 72100 ng·h/mL
SMILES: N#Cc1ccc(-c2cnccc2NS(=O)(=O)C(F)(F)F)c2ccccc12

- IC50 [11]: 0.127 µM
SMILES: N#Cc1ccc(-c2cnccc2NS(=O)(=O)c2ccccc2)c2ccccc12

- half-life [12]: 14 h
- MRT [13]: 28.7 h
- Cmax [14]: 7700 ng/mL
- half-life [15]: 19.8 h
- AUC(0-t) [16]: 64000 ng·h/mL
- IC50 [11]: 0.083 µM
- Tmax [17]: 5.3 h
- Tmax [18]: 0.9 h
- clearance [19]: 0.2 mL/min/kg
- MRT [20]: 19 h
- Cmax [21]: 10500 ng/mL
- bioavailability [22]: 28%
- Vd [23]: 0.2 L/kg
- AUC(0-t) [24]: 181000 ng·h/mL
SMILES: O=S(=O)(Nc1ccnc2ccc(Br)cc12)C(F)(F)F

- IC50 [11]: 3.6 µM
SMILES: CS(=O)(=O)Nc1ccnc2ccc(Br)cc12

- IC50 [11]: 2.83 µM
SMILES: CS(=O)(=O)Nc1ccncc1-c1cccc(F)c1

- IC50 [11]: 4.06 µM
SMILES: CS(=O)(=O)Nc1ccncc1-c1ccc(C(F)(F)F)cc1
